From patent publication US20120232070A1, “Use of Indole Derivatives as Nurr-1 Activators for the Application Thereof as a Medicament for the Treatment of Parkinson's Disease” (Laboratoires Fournier SA, priority 2009, published 2012)

What was measured:
[1] = molecular target: hNurr1_RXRαFL (NURR1/RXRα heterodimer) (Homo sapiens, UniProt P19793+P43354); experiment: Transactivation assay in Cos-7 cells, NURR-1-Gal4 / RXRα, luciferase reporter; type: cell-based; conditions: for Emax: COS-7, read-out: hNurr1_RXRαFL Eff (%), efficacy in % relative to the reference XCT0135908 at 2·10^−5 M (=100%); for EC50: Cos-7 cells, overnight incubation
Chain of hNurr1_RXRαFL (NURR1/RXRα heterodimer) (P19793 whole entry, the tested form may be a part): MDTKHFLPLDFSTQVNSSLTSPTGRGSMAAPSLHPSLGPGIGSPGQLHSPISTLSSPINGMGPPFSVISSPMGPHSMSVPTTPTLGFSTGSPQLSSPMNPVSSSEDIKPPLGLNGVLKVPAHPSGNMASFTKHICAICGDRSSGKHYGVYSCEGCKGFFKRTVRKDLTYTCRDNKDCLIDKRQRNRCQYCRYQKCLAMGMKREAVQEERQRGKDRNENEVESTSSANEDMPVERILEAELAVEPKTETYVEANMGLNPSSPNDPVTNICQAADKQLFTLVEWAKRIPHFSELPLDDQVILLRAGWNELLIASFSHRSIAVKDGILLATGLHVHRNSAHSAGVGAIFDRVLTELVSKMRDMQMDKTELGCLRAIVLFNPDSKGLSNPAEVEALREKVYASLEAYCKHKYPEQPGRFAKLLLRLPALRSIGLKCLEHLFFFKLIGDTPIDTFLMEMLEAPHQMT
Chain of hNurr1_RXRαFL (NURR1/RXRα heterodimer) (P43354 328-598): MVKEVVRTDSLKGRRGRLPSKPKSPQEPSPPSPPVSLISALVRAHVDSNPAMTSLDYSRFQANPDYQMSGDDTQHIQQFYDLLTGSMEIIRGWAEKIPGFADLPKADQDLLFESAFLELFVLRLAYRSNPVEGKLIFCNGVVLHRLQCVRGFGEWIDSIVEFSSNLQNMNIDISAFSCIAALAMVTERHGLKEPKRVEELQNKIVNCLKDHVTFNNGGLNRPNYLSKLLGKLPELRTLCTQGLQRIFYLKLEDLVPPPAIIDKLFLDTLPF
How it was run: (§1)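 Cos-7 cells co-transfected with human NURR-1-Gal4 chimera, human RXRα or RXRγ, and 5Gal4pGL3-TK-Luc reporter; compounds added at 10^−4 to 3·10^−10 M final, overnight incubation, luciferase read. Induction over each heterodimer's baseline expressed as % of reference RXR agonist XCT0135908 (2·10^−5 M) taken as 100%.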

[2] = molecular target: hNurr1_RXRγFL (NURR1/RXRγ heterodimer) (Homo sapiens, UniProt P43354+P48443); experiment: Transactivation assay in Cos-7 cells, NURR-1-Gal4 / RXRγ, luciferase reporter; type: cell-based; conditions: for Emax: COS-7, read-out: hNurr1_RXRγFL Eff (%), efficacy in % relative to the reference XCT0135908 at 2·10^−5 M (=100%); for EC50: Cos-7 cells, overnight incubation
Chain of hNurr1_RXRγFL (NURR1/RXRγ heterodimer) (P43354 328-598): as above
Chain of hNurr1_RXRγFL (NURR1/RXRγ heterodimer) (P48443 whole entry, the tested form may be a part): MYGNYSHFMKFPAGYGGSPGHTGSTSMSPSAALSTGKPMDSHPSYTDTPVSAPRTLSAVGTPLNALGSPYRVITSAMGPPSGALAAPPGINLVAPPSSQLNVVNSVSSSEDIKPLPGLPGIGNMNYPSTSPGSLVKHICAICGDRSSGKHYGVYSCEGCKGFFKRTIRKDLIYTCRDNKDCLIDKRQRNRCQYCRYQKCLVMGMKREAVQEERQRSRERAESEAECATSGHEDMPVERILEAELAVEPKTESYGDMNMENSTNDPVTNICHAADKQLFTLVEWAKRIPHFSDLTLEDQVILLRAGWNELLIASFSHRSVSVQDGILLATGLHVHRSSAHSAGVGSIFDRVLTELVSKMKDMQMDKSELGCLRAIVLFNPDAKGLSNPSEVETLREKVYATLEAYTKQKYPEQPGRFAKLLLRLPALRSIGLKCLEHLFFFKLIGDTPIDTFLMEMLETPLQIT
How it was run: as §1

Row | SMILES | Emax [1] [%] | EC50 [1] [nM] | Emax [2] [%] | EC50 [2] [nM]
1 | CC(C)(C)c1cccc(S(=O)(=O)n2c(Cc3ccc(C(=O)O)c(Cl)c3)cc3cc(C(F)(F)F)ccc32)c1 [Example 206, 4-[[1-[[3-(1,1-dimethylethyl)-phenyl]sulfonyl]-5-trifluoromethyl-1H-indol-2-yl]methyl]-2-chlorobenzoic acid] | 71 | 174 | 85 | 363
2 | COc1ccc(S(=O)(=O)n2c(Cc3ccc(C(=O)O)cc3)cc3cc(Cl)ccc32)cc1 [Example 165, 4-[[1-[4-methoxy-phenylsulfonyl]-5-(chloro)-1H-indol-2-yl]methyl]benzoic acid] | 51 | 1140 | 37 | 2930
3 | CCS(=O)(=O)n1c(Cc2ccc(C(=O)O)cc2)cc2cc(Cl)ccc21 [Example 176, 4-[[5-chloro-1-(ethylsulfonyl)-1H-indol-2-yl]methyl]benzoic acid] | 33 | 3390 | 21 | > 10000
4 | CCCCCc1ccc(S(=O)(=O)n2c(Cc3ccc(C(=O)O)cc3)cc3cc(Cl)ccc32)cc1 [Example 170, 4-[[1-[4-pentyl-phenylsulfonyl]-5-(chloro)-1H-indol-2-yl]methyl]benzoic acid] | 42 | 1740 | 26 | > 10000
5 | O=C(O)c1ccc(Cc2cc3cc(C(F)(F)F)ccc3n2S(=O)(=O)c2ccc(-c3ccccc3)s2)cc1 [Example 14, 4-[[1-[(5-phenyl-2-thienyl)sulfonyl]-5-(trifluoromethyl)-1H-indol-2-yl]methyl]benzoic acid] | 69 | 396 | 30 | 778
6 | O=C(O)c1ccc(Cc2cc3cc(C(F)(F)F)ccc3n2S(=O)(=O)c2ccc(OC(F)(F)F)cc2)cc1 [Example 142, 4-[[1-[4-trifluoromethoxy-phenylsulfonyl]-5-(trifluoromethyl)-1H-indol-2-yl]methyl]benzoic acid] | 38 | 459 | 19 | 816
7 | CCCOc1ccc(S(=O)(=O)n2c(Cc3ccc(C(=O)O)cc3)cc3cc(C(F)(F)F)ccc32)cc1 [Example 123, 4-[[1-[4-propoxy-phenylsulfonyl]-5-(trifluoromethyl)-1H-indol-2-yl]methyl]benzoic acid] | 60 | 217 | 36 | 646
8 | COC(=O)c1cc(Cc2cc3cc(C(F)(F)F)ccc3n2S(=O)(=O)c2cccc(C(C)(C)C)c2)cn1C [Example 192, 4-{[1-[[3-(1,1-dimethylethyl)-phenyl]sulfonyl]-5-trifluoromethyl-1H-indol-2-yl]-methyl}-1-methyl-1H-pyrrol-2-yl-carboxylic acid, methyl ester] | 85 | 1120 | 58 | > 10000
9 | O=C(O)c1ccc(Cc2cc3cc(Cl)ccc3n2S(=O)(=O)c2cccc(F)c2)cc1 [Example 154, 4-[[1-[3-fluoro-phenylsulfonyl]-5-(chloro)-1H-indol-2-yl]methyl]benzoic acid] | 68 | 472 | 66 | 1360
10 | COC(=O)c1ccc(Cc2c(F)c3cc(C(F)(F)F)ccc3n2S(=O)(=O)c2cccc(C(C)(C)C)c2)cc1 [Example 148, 4-[[1-[[3-(1,1-dimethylethyl)phenyl]sulfonyl]-3-fluoro-5-(trifluoromethyl)-1H-indol-2-yl]methyl]-benzoic acid, methyl ester] | 119 | 62 | 101 | 121
11 | CC(C)(C)c1cccc(S(=O)(=O)n2c(Cc3ccc(-c4n[nH]c(=O)o4)cc3)cc3cc(C(F)(F)F)ccc32)c1 [Example 226, 5-[4-[[1-[[3-(1,1-dimethylethyl)phenyl]sulfonyl]-5-(trifluoromethyl)-1H-indol-2-yl]methyl]-phenyl]-3H-[1,3,4]oxadiazol-2-one] | 82 | 465 | 70 | > 10000
12 | CC(C)(C)c1cccc(S(=O)(=O)n2c(Cc3ccc(C(=O)O)cc3)cc3ccccc32)c1 [Example 195, 4-[[1-[[3-(1,1-dimethylethyl)phenyl]sulfonyl]-1H-indol-2-yl]methyl]-benzoic acid] | 57 | 629 | 56 | 1170
13 | O=C(O)c1ccc(Cc2cc3cc(C(F)(F)F)ccc3n2S(=O)(=O)c2ccc(OC(F)F)c(Cl)c2)cc1 [Example 124, 4-[[1-[3-chloro-4-difluoromethoxy-phenylsulfonyl]-5-(trifluoromethyl)-1H-indol-2-yl]methyl]benzoic acid] | 59 | 349 | 44 | 697
14 | COC(=O)c1ccc(Cc2cc3cc(C(F)(F)F)ccc3n2S(=O)(=O)c2cccc(C(C)(C)C)c2)s1 [Example 190, 5-[[1-[[3-(1,1-dimethylethyl)-phenyl]sulfonyl]-5-trifluoromethyl-1H-indol-2-yl]-methyl]-thiophene-2-carboxylic acid, methyl ester] | 97 | 0.2 | 107 | 13
15 | CC(C)(C)c1ccc(S(=O)(=O)n2c(Cc3ccc(C(=O)O)cc3)cc3cc(C(F)(F)F)ccc32)cc1 [Example 21, 4-[[1-[[4-(1,1-dimethylethyl)phenyl]sulfonyl]-5-(trifluoromethyl)-1H-indol-2-yl]methyl]benzoic acid] | 46 | 121 | 35 | 240
16 | CC1(C)CCc2ccc(S(=O)(=O)n3c(Cc4ccc(C(=O)O)cc4)cc4cc(Cl)ccc43)cc2O1 [Example 173, 4-[[5-chloro-1-[(3,4-dihydro-2,2-dimethyl-2H-1-benzopyran-7-yl)sulfonyl]-1H-indol-2-yl]methyl]-benzoic acid] | 78 | 145 | 73 | 498
17 | O=C(O)c1ccc(Cc2cc3cc(Cl)ccc3n2S(=O)(=O)c2ccc(-c3ccccc3)cc2)cc1 [Example 151, 4-[[1-[biphenyl-4-sulfonyl]-5-(chloro)-1H-indol-2-yl]methyl]benzoic acid] | 80 | 427 | 17 | > 10000
18 | O=C(O)c1ccc(Cc2cc3cc(Cl)ccc3n2S(=O)(=O)c2ccc(F)cc2)cc1 [Example 167, 4-[[1-[4-fluoro-phenylsulfonyl]-5-(chloro)-1H-indol-2-yl]methyl]benzoic acid] | 48 | 1150 | 40 | 2440
19 | CC(C)(C)c1cccc(S(=O)(=O)n2c(Cc3ccc(C(=O)O)o3)cc3cc(C(F)(F)F)ccc32)c1 [Example 69, 5-[[1-[[3-(1,1-dimethylethyl)-phenyl]sulfonyl]-5-trifluoromethyl-1H-indol-2-yl]methyl]-furan-2-carboxylic acid] | 79 | 9 | 72 | 15
20 | CC(C)(C)c1cccc(S(=O)(=O)n2c(C(F)c3ccc(C(=O)O)cc3)cc3cc(C(F)(F)F)ccc32)c1 (centres unmarked) [Example 217, 4-[[1-[[3-(1,1-dimethylethyl)phenyl]sulfonyl]-5-(trifluoromethyl)-1H-indol-2-yl]fluoromethyl]benzoic acid] | 83 | 149 | 80 | 355
